According to patent US20230286995A1, “METABOLICALLY STABLE PYRIMIDINYL DIHYDROQUINOXALINONES AS TUBULIN POLYMERIZATION INHIBITORS” (UNIVERSITY OF TENNESSEE RESEARCH FOUNDATION, priority 2022, published 2023):
“Also recorded” adds a separate entry of the source. Where two headings read alike, the source gives them in different places.

Key:
MDA-MB-231 = assay: Cytotoxicity assay (MTS, 72 h); format: cell-based; details: Homo sapiens
[1] = tested on: taxane-resistant melanoma, breast, and lung cancer cells; assay: Cytotoxicity, regular and taxane-resistant lines of Table 2; format: cell-based; details: Homo sapiens
22RV1 xenografts = assay: 22RV1 prostate cancer xenograft model; format: in vivo, NSG mice; details: 1 mg/kg IV, 2 times/week
Protocol: FIG. 19D: Similarly, for 22RV1 prostate cancer xenograft model, we inoculated 2.5×10^6 22RV1 cells subcutaneously into the right flank of each mouse. The cells were prepared in the mixture of FBS and phenol red-free DMEM medium and Matrigel (1:1 ratio). […] We measured tumor volume 2 times a week until reaching the study endpoint.

M14 = assay: Cytotoxicity assay (MTS, 72 h); details: Homo sapiens
A375/TxR cells [2] = assay: Clonogenic assay; format: cell-based, human; details: 7 days
Protocol: In case of clonogenic assay, A375/TxR cells were seeded in 6-well plates at very low concentration (1000 cells/well). […] Medium was replaced with fresh drug once during the treatment. Cells were then fixed with cold methanol and stained with 0.5% crystal violet. Colony area density was quantified using the Keyence Hybrid Cell Count module.
Cell proliferation inhibition assay: The cell proliferation inhibitory effects of tested compounds were first determined through MTS assay as previously described. In short, 3000 to 7500 cells were added to a 96-well cell culture plate followed by the treatment of the test compounds (0.1 nM to 3 μM) in quadruplicate after seeding and overnight incubation. After 72 hours of treatment, MTS (Promega) was added to the wells and the absorbance was measured at […] after incubating for 1.5 to 2 h. […] Briefly, A375/TxR cells (1000 cells/well) were treated with growth medium containing 0.5 nM, 1 nM, or 2 nM of 5v and incubated for over 7 days (the incubation medium was changed every 3 days). After fixing and staining with 0.5% crystal violet, the cell colonies were quantified by the Hybrid Counting module of the Keyence BZ-X700 microscope. The assay was performed in triplicate.

A375/TxR cells [3] = assay: Wound healing (scratch) assay; format: cell-based, human
Protocol: Scratch-wound assay: The anti-migration effect of 5v was determined by a scratch-wound assay using an IncuCyte S3 live-cell imager as previously reported. After overnight incubation, the monolayers of A375/TxR cells were scratched by a WoundMaker (Essen BioScience) and the cells were treated with 5v (0.5 nM, 1 nM, 2 nM, and 5 nM) for 48 h. The wounds were imaged every 2 h by IncuCyte and the relative wound density was calculated by IncuCyte Scratch Wound Software Module. The assay was performed in quadruplicate.

[4] = tested on: human melanoma and breast cancer cell lines; assay: Cytotoxicity, all tested cell lines of Table 1; format: cell-based; details: Homo sapiens, melanoma and breast lines of Table 1; read-out: IC50 values, range over all tested cell lines
M14/LCC6MDR1 = assay: Cytotoxicity assay (MTS, 72 h); format: cell-based; details: Homo sapiens, read-out: IC50 ± SEM (nM) M14/LCC6MDR1
MDA-MB-468 = assay: Cytotoxicity assay (MTS, 72 h); format: cell-based, human; details: Homo sapiens, MDA-MB-468; Table 1; read-out: IC50 (nM) Breast MDA-MB-468
in vitro [5] = details: mouse, liver microsomes
logP = format: physicochemical; details: Table 1; method not described
MDA-MB-231/VxR = assay: Cytotoxicity assay (MTS, 72 h); format: cell-based; details: Homo sapiens
RPMI-7951 = assay: Cytotoxicity assay (MTS, 72 h); format: cell-based; details: Homo sapiens, Table 1, read-out: IC50 (nM) Melanoma RPMI-7951
MDA-MB-231/TxR = assay: Cytotoxicity assay (MTS, 72 h); format: cell-based; details: Homo sapiens
MDA-MB-453 = assay: Cytotoxicity assay (MTS, 72 h); format: cell-based, human; details: Homo sapiens, MDA-MB-453
in vitro [6] = details: human, liver microsomes
A375/TxR = assay: Cytotoxicity assay (MTS, 72 h); format: cell-based; details: Homo sapiens, read-out: IC50 ± SEM (nM) A375/TxR
DU-145/VxR = assay: Cytotoxicity assay (MTS, 72 h); format: cell-based; details: Homo sapiens, DU-145, read-out: IC50 ± SEM (nM) DU-145/VXR
PANC-1 = assay: Cytotoxicity assay (MTS, 72 h); format: cell-based; details: Homo sapiens
Protocol: Mia PaCa-2 and PANC-1 cells were seeded in 96-well plates at 4000 and 5000 cells per well, respectively.
Cytotoxicity Assay. […] Each experiment consisted of four replicates.

A375/TxR xenografts = assay: In vivo A375/TxR melanoma xenograft model; parameters: species or system NSG mice; details: for decrease in tumor weight vs vehicle group / tumor reduction / tumor growth inhibition vs control: 2 times per week
[7] = Microsomal stability assay; details: Table 3; liver microsomes; mean (% CV)
[8] = MDA-MB-231, read-out: IC50 in MDA-MB-231 parental line
[9] = MDA-MB-231, read-out: IC50 ± SEM (nM) MDA-MB-231, Table 2
[10] = taxane-resistant melanoma, breast, and lung cancer cells, read-out: IC50 values, range against taxane-resistant cells
[11] = M14, read-out: IC50 (nM) Melanoma M14
[12] = M14, read-out: IC50 ± SEM (nM) M14
[13] = MDA-MB-231, read-out: IC50 ± SEM (nM) MDA-MB-231/VXR
[14] = Table 1, read-out: IC50 (nM) Breast MDA-MB-453
[15] = H&E and anti-human mitochondria IHC

Work on `COc1ccc2c(c1)NC(=O)CN2c1nc(C)nc2c1CCC2` [Compound 5m, 7-methoxy-4-(2-methyl-6,7-dihydro-5H-cyclopenta[d]pyrimidin-4-yl)-3,4-dihydroquinoxalin-2(1H)-one] yielded an IC50 (MDA-MB-231; [8]) of 1 to 2.2 nM, an IC50 (MDA-MB-231; [9]) of 1.7 ± 0.4 nM and an IC50 ([1]; melanoma, breast and lung cancer cell lines, read-out: IC50 values, range against regular and paclitaxel-resistant lines) of 1 to 5 nM. The IC50 [1, 10] was 0.3 to 5 nM, the “growth of 22RV1 xenografts” value (22RV1 xenografts) was “remarkable in inhibiting the growth of 22RV1 xenografts” and the IC50 (M14; [11]) was 1.4 ± 0.4 nM. The IC50 (M14; [12]) was 1.3 ± 0.2 nM, the “colony formation of A375/TxR cells” value (A375/TxR cells [2]) was “completely inhibited the colony formation at high dose, i.e., 2 nM” and the “migration of A375/TxR cells” value (A375/TxR cells [3]) was “markedly inhibited the migration of A375/TxR cells”. The IC50 [4] was 0.4 to 26 nM, the IC50 (M14/LCC6MDR1) was 1.4 ± 0.3 nM and the IC50 (MDA-MB-468) was 1.8 ± 0.4 nM. The CLint scaled at 1 μg/mL (in vitro [5]) was 48 mL/min/kg, the logP (logP) was 2.96 and the IC50 (MDA-MB-231/VxR; MDA-MB-231, 72 h, read-out: IC50 in Compound 17ya resistant MDA-MD-231/VxR cells) was 1.2 to 2.9 nM. It also gave an IC50 (MDA-MB-231/VxR; [13]) of 2.3 ± 0.4 nM, an IC50 (RPMI-7951) of 1.5 ± 0.4 nM and an IC50 (MDA-MB-231/TxR; read-out: IC50 ± SEM (nM) MDA-MB-231/TxR) of 1.5 ± 0.3 nM. The IC50 (MDA-MB-453; [14]) was 0.5 ± 0.1 nM, the CLint scaled at 1 μg/mL (in vitro [6]) was 13 mL/min/kg and the IC50 (A375/TxR) was 1.1 nM. The IC50 (DU-145/VxR) was 3.7 ± 0.6 nM, the IC50 (PANC-1; Example 7, FIG. 20, read-out: calculated IC50, PANC-1 cells) was 2.7 nM and the “decrease of final tumor volume vs vehicle” value (A375/TxR xenografts; 2.5 mg/kg IV, 7 doses within 24 days) was 64.6%. For the same compound, the “Metabolic stability in rat t1/2” value [7] was 8.0 min and the “Metabolic stability in rat t1/2 (min)” value [7] was 7.97 (0.7) min.

`CCNc1nc2c(c(N3CC(=O)Nc4cc(OC)ccc43)n1)CCC2` [Compound 5v, 4-(2-(ethylamino)-6,7-dihydro-5H-cyclopenta[d]pyrimidin-4-yl)-7-methoxy-3,4-dihydroquinoxalin-2(1H)-one] gave an IC50 (MDA-MB-231; MDA-MB-231, read-out: IC50 (nM) Breast Cancer MDA-MB-231, Table 6) of 2.6 ± 0.5 nM, an IC50 (MDA-MB-231; MDA-MB-231, read-out: IC50 (nM) Breast MDA-MB-231, Table 1) of 0.7 ± 0.1 nM and an IC50 (MDA-MB-231; [8]) of 1 to 2.2 nM. The IC50 (MDA-MB-231; [9]) was 1 ± 0.2 nM, the IC50 [1, 10] was 0.3 to 5 nM and the IC50 (M14; M14, read-out: IC50 (nM) Melanoma Cancer M14) was 1.5 ± 0.3 nM. The IC50 (M14; [11]) was 0.6 ± 0.1 nM, the IC50 (M14; [12]) was 0.3 ± 0.04 nM and the “colony formation of A375/TxR cells” value (A375/TxR cells [2]) was “inhibit the proliferation of A375/TxR cell colonies in a concentration-dependent manner”. For the same compound, the “migration of A375/TxR cells” value (A375/TxR cells [3]) was “remarkable potency in inhibiting the cell migration of A375/TxR cells”, the IC50 [4] was 0.4 to 26 nM and the IC50 (M14/LCC6MDR1; Table 2, multidrug-resistant) was 0.3 ± 0.03 nM. It also gave an IC50 (MDA-MB-468) of 0.8 ± 0.1 nM, a half-life at 1 μg/mL (in vitro [5]) of 6.33 min and a microsomal CLint at 1 μg/mL (in vitro [5]) of 109 µL/min/mg. It also gave a logP (logP) of 2.39, an IC50 (MDA-MB-231/VxR; [13]) of 1.2 ± 0.3 nM and an IC50 (RPMI-7951) of 0.5 ± 0.1 nM. The IC50 (MDA-MB-231/TxR; read-out: IC50 ± SEM (nM) MDA-MB-231/TxR, Table 2, paclitaxel-resistant) was 0.6 ± 0.1 nM, the IC50 (MDA-MB-453; [14]) was 0.43 ± 0.1 nM and the IC50 (MDA-MB-453; Table 6, read-out: IC50 (nM) Breast Cancer MDA-MB-453) was 1.3 ± 0.5 nM. It also gave a half-life at 1 μg/mL (in vitro [6]) of 24.7 min, a microsomal CLint at 1 μg/mL (in vitro [6]) of 28.1 µL/min/mg and an IC50 (A375/TxR; Table 2, paclitaxel-resistant) of 0.3 ± 0.03 nM. For the same compound, the IC50 (DU-145/VxR) was 1 ± 0.1 nM, the IC50 (PANC-1; Table 6, read-out: IC50 (nM) Pancreatic cancer PANC-1) was 3.7 ± 0.7 nM and the “decrease in tumor weight vs vehicle group” value (A375/TxR xenografts; 2 mg/kg IV) was 47.4%. The “tumor reduction / tumor growth inhibition vs control” value (A375/TxR xenografts; 2 mg/kg IV) was 62.3%, the “toxicity to major organs (heart, kidney, spleen), H&E” value (A375/TxR xenografts; 2 mg/kg or 4 mg/kg, three weeks) was “no obvious damage to the major organs; also recorded: no toxicity to major organs” and the “cleaved caspase-3 in tumors, IHC” value (A375/TxR xenografts; 2 mg/kg, 4 mg/kg) was “significantly increased the proportion of cleaved caspase-3 positive cells”. The “decrease in tumor weight vs vehicle group” value (A375/TxR xenografts; 4 mg/kg IV) was 59.9%, the “tumor reduction / tumor growth inhibition vs control” value (A375/TxR xenografts; 4 mg/kg IV) was 76.6% and the “Ki67 and CD31 expression in tumors, IHC” value (A375/TxR xenografts; 2 and 4 mg/kg) was “significantly decreased”. The “spontaneous liver metastasis” value (A375/TxR xenografts; [15]) was “significant inhibition of lung or liver metastasis”, the “spontaneous lung metastasis” value (A375/TxR xenografts; [15]) was “significant inhibition of lung or liver metastasis” and the “mouse body weight during therapy” value (A375/TxR xenografts; all doses tested) was “no body weight loss observed”. For the same compound, the “tumor necrosis, H&E” value (A375/TxR xenografts; mouse, in vivo) was “more necrotic cells in 5v-treated tumors” and the “Metabolic stability in rat t1/2” value [7] was 3.6 min.
